Results: patent publication US8327467B2, “Anthranilic acid derivative or salt thereof” (Toyama Chemical Co., Ltd., priority 2005, dated 2012)
Counter-ions that a name gives are not always drawn.

Tested on: MMP-13
Assay: MMP-13 production inhibition test
Type: cell-based
Conditions: 30 μmol/L; human cartilage derived cell line SW1353, IL-1β 10 ng/mL, 16 hours after stimulation, MMP-13 in culture supernatant by ELISA; read-out: Inhibition rate (%) at 30 μmol/L
Procedure: MMP-13 Production Inhibition Test
6.8×10^3 human cartilage derived cell line SW1353 cells were suspended in 100 μL of Dulbecco modified Eagle's medium supplemented with 10% fetal calf serum, plated on 96-well plates and cultured for 3 days. After the culture medium was changed to Dulbecco modified Eagle's medium containing 0.2% lactalbumin hydrolysate and the cells were cultured for 6 hours, test compounds were added and then IL-1β was added to obtain the final concentration of 10 ng/mL 1 hour later. 16 hours after the stimulation, supernatant was collected and the amount of MMP-13 in the culture supernatant was determined with an ELISA kit (Amersham). The inhibition rate was calculated from the amount of MMP-13 in the presence of a test compound assuming that the amount of MMP-13 was 100% in the absence of the test compound.

| SMILES | inhibition at 30 µM |
| --- | --- |
| Cc1ccc(-c2ccc(C(=O)O)c(Nc3ccc(F)cc3)c2)cc1C [Example 214, 4-(3,4-Dimethylphenyl)-2-(4-fluoroanilino)benzoic acid] | 98% |
| O=C(O)c1ccc(N2CCc3ccccc32)cc1Nc1cccc(O)c1 [Example 286, 2-((3-hydroxyphenyl)amino)-4-(indolin-1-yl)benzoic acid] | 96% |
| O=C(O)c1ccc(/C=C/c2ccc3c(c2)OCO3)cc1Nc1ccc(F)cc1 [Example 140, 4-((E)-2-(Benzo-1,3-dioxol-5-yl)vinyl)-2-(4-fluoroanilino)benzoic acid] | 93% |
| O=C(O)c1ccc(-c2ccccc2)cc1Nc1cccc(OC(F)(F)F)c1 [Example 191, 4-Phenyl-2-(3-(trifluoromethoxy)anilino)benzoic acid] | 97% |
| CN(C)c1ccccc1Nc1cc(-c2ccccc2)ccc1C(=O)O [Example 372, 2-((2-(dimethylamino)phenyl)amino)-4-phenylbenzoic acid] | 97% |
| O=C(O)c1ccc(CCc2ccccc2)cc1Nc1ccc(-n2cccn2)cc1 [Example 363, 4-Phenethyl-2-(4-(1H-pyrazol-1-yl)phenylamino)benzoic acid] | 96% |
| COc1cccc(CCc2ccc(C(=O)O)c(Nc3ccccc3C)c2)c1 [Example 290, 4-(2-(3-Methoxyphenyl)ethyl)-2-(2-methylanilino)benzoic acid] | 98% |
| CS(=O)(=O)c1ccc(-c2ccc(C(=O)O)c(Nc3ccc(F)cc3)c2)cc1 [Example 11, 2-(4-fluoroanilino)-4-(4-(methanesulfonyl)phenyl)benzoic acid] | 62% |
| COc1ccccc1Nc1cc(CCc2ccccc2)ccc1C(=O)O [Example 181, 2-(2-Methoxyanilino)-4-phenethylbenzoic acid] | 97% |
| O=C(O)c1ccc(-c2ccccc2OC(F)(F)F)cc1Nc1ccc(F)cc1 [Example 220, 2-(4-Fluoroanilino)-4-(2-(trifluoromethoxy)phenyl)benzoic acid] | 98% |
| O=C(O)c1ccc(/C=C/c2cccc(O)c2)cc1Nc1ccc(F)cc1 [Example 126, 2-(4-fluoroanilino)-4-((E)-2-(3-hydroxyphenyl)vinyl)benzoic acid] | 94% |
| O=C(O)c1ccc(-c2ccc3occc3c2)cc1Nc1ccc(F)cc1 [Example 225, 4-(Benzofuran-5-yl)-2-(4-fluoroanilino)benzoic acid] | 98% |
| O=C(O)c1ccc(CCc2ccccc2)cc1Nc1ccc(C(F)(F)F)cc1 [Example 170, 4-Phenethyl-2-(4-(trifluoromethyl)anilino)benzoic acid] | 97% |
| Cc1ccc(CCc2ccc(C(=O)O)c(Nc3ccc(F)cc3)c2)cc1 [Example 252, 2-(4-Fluoroanilino)-4-(2-(4-methylphenyl)ethyl)benzoic acid] | 96% |
| COc1cccc(CCc2ccc(C(=O)O)c(Nc3ccc(F)cc3)c2)c1 [Example 166, 2-(4-Fluoroanilino)-4-(2-(3-methoxyphenyl)ethyl)benzoic acid] | 92% |
| COc1ccc(Nc2cc(Oc3ccccc3)ccc2C(=O)O)c(OC)c1 [Example 45, 2-(2,4-Dimethoxyanilino)-4-phenoxybenzoic acid] | 73% |
| O=C(O)c1ccc(-c2ccc3c(c2)OCO3)cc1Nc1ccc(F)cc1 [Example 7, 4-(Benzo-1,3-dioxol-5-yl)-2-(4-fluoroanilino)benzoic acid] | 95% |
| O=C(O)c1ccc(CCc2ccccc2)cc1Nc1ccccc1C(F)(F)F [Example 169, 4-phenethyl-2-(2-(trifluoromethyl)anilino)benzoic acid] | 97% |
| O=C(O)c1ccc(Oc2ccccc2)cc1NCc1ccccc1 [Example 52, 2-(benzylamino)-4-phenoxybenzoic acid] | 77% |
| O=C(O)c1ccc(CCc2ccccc2)cc1Nc1ccc2[nH]ccc2c1 [Example 331, 2-((1H-Indol-5-yl)amino)-4-phenethylbenzoic acid] | 97% |
| O=C(O)c1ccc(CCc2ccccc2)cc1Nc1cc(-c2ccccc2)n[nH]1 [Example 329, 4-Phenethyl-2-((3-phenyl-1H-pyrazol-5-yl)amino)benzoic acid] | 96% |
| O=C(O)c1ccc(CCc2ccccc2)cc1Nc1cccc(-n2cccn2)c1 [Example 362, 4-Phenethyl-2-(3-(1H-pyrazol-1-yl)phenylamino)benzoic acid] | 97% |
| O=C(O)c1ccc(Oc2ccccc2)cc1NCc1ccc(F)cc1 [Example 49, 2-(4-Fluorobenzylamino)-4-phenoxybenzoic acid] | 85% |
| O=C(O)c1ccc(-c2ccccc2)cc1Nc1ccccc1Cl [Example 343, 2-(2-Chloroanilino)-4-phenylbenzoic acid] | 98% |

| SMILES | inhibition at 30 µM |
| --- | --- |
| O=C(O)c1ccc(-c2ccccc2)cc1NCC=Cc1ccccc1 [Example 350, 2-(Cinnamylamino)-4-phenylbenzoic acid] | 91% |
| O=C(O)c1ccc(N2CCc3ccccc32)cc1Nc1ccc(F)cc1 [Example 243, 2-(4-fluoroanilino)-4-(indolin-1-yl)benzoic acid] | 97% |
| O=C(O)c1ccc(Oc2ccccc2)cc1NC1CCCCC1 [Example 48, 2-(cyclohexylamino)-4-phenoxybenzoic acid] | 85% |
| CC(=O)c1ccc(-c2ccc(C(=O)O)c(Nc3ccc(F)cc3)c2)cc1 [Example 15, 4-(4-Acetylphenyl)-2-(4-fluoroanilino)benzoic acid] | 91% |
| O=C(O)c1ccc(NC(=O)c2csc3ccccc23)cc1Nc1ccc(F)cc1 [Example 87, 4-(benzothiophene-3-carboxamido)-2-(4-fluoroanilino)benzoic acid] | 97% |
| O=C(O)c1ccc(Nc2ccccc2)cc1Nc1ccc(F)cc1 [Example 63, 4-anilino-2-(4-fluoroanilino)benzoic acid] | 67% |
| COc1ccc(-c2ccc(C(=O)O)c(Nc3ccc(F)cc3)c2)cc1OC [Example 209, 4-(3,4-Dimethoxyphenyl)-2-(4-fluoroanilino)benzoic acid] | 82% |
| O=C(O)c1ccc(NCCCc2ccccc2)cc1Nc1ccc(F)cc1 [Example 69, 2-(4-Fluoroanilino)-4-((3-phenylpropyl)amino)benzoic acid] | 94% |
| O=C(O)c1ccc(CCc2ccccc2)cc1Nc1cccc2cnccc12 [Example 360, 2-((Isoquinolin-5-yl)amino)-4-phenethylbenzoic acid trifluoroacetate] | 97% |
| COc1ccc(CCc2ccc(C(=O)O)c(Nc3ccc(F)cc3)c2)cc1 [Example 160, 2-(4-Fluoroanilino)-4-(2-(4-methoxyphenyl)ethyl)benzoic acid] | 93% |
| CC(=O)Nc1cccc(CCc2ccc(C(=O)O)c(Nc3ccc(F)cc3)c2)c1 [Example 262, 4-(2-(3-Acetamidophenyl)ethyl)-2-(4-fluoroanilino)benzoic acid] | 80% |
| O=C(O)c1ccc(Oc2ccccc2)cc1Nc1ccc2c(c1)OCO2 [Example 43, 2-((Benzo-1,3-dioxol-5-yl)amino)-4-phenoxybenzoic acid] | 93% |
| O=C(O)c1ccc(NCc2ccccc2)cc1Nc1ccc(F)cc1 [Example 67, 4-(benzylamino)-2-(4-fluoroanilino)benzoic acid] | 67% |
| O=C(O)c1ccc(-c2ccccc2)cc1Nc1ccc(F)cc1 [Example 37, 2-(4-fluoroanilino)-4-phenylbenzoic acid] | 92% |
| O=C(O)c1ccc(-n2cnc3ccccc32)cc1Nc1ccc(F)cc1 [Example 248, 4-(1H-benzimidazol-1-yl)-2-(4-fluoroanilino)benzoic acid trifluoroacetate] | 84% |
| O=C(O)c1ccc(CCc2ccccc2)cc1Nc1ccccc1OC(F)(F)F [Example 199, 4-Phenethyl-2-(2-(trifluoromethoxy)anilino)benzoic acid] | 97% |
| O=C(O)c1ccc(-c2ccccc2)cc1Nc1ccc(OC(F)(F)F)cc1 [Example 190, 4-Phenyl-2-(4-(trifluoromethoxy)anilino)benzoic acid] | 97% |
| Cc1ccccc1Nc1cc(-c2cccc(O)c2)ccc1C(=O)O [Example 280, 4-(3-Hydroxyphenyl)-2-(2-methylanilino)benzoic acid] | 90% |
| O=C(O)c1ccc(/C=C/c2ccc(F)cc2)cc1Nc1ccc(F)cc1 [Example 132, 2-(4-Fluoroanilino)-4-((E)-2-(4-fluorophenyl)vinyl)benzoic acid] | 95% |
| O=C(O)c1ccc(CCCc2ccccc2)cc1Nc1ccc(F)cc1 [Example 81, 2-(4-fluoroanilino)-4-(3-phenylpropyl)benzoic acid] | 97% |
| COc1ccc(Nc2cc(-c3ccccc3)ccc2C(=O)O)cc1 [Example 185, 2-(4-methoxyanilino)-4-phenylbenzoic acid] | 79% |
| O=C(O)c1ccc(CCc2ccc3c(c2)OCCO3)cc1Nc1cccc(O)c1 [Example 293, 4-(2-(2,3-dihydro[1,4]benzodioxin-6-yl)ethyl)-2-((3-hydroxyphenyl)amino)benzoic acid] | 87% |
| O=C(O)c1ccc(-c2ccc3[nH]ccc3c2)cc1Nc1ccc(F)cc1 [Example 13, 2-(4-Fluoroanilino)-4-(1H-indol-5-yl)benzoic acid] | 95% |
| CS(=O)(=O)Nc1ccc(-c2ccc(C(=O)O)c(Nc3ccc(F)cc3)c2)cc1 [Example 12, 2-(4-Fluoroanilino)-4-(4-(methanesulfonamido)phenyl)benzoic acid] | 75% |
